Reference: patent US9522942B2, “Analogs of temporin-SHa and uses thereof” (UNIVERSITE PIERRE ET MARIE CURIE (PARIS 6), priority 2009, dated 2016)
Entries after “also recorded” stand apart in the source; their conditions may differ. Ends that are not written are not given here.

Key:
[1] = system: human monocyte cell line THP-1; conditions: THP-1, 72 hrs, MTT test (FIG. 3), at antimicrobial concentrations
Method: The cytotoxic activity of the antimicrobial peptides was determined on a human monocyte cell line THP-1. Cells were cultured in RPMI medium (10% FCS, 100 U/mL penicillin, 100 μg/mL streptomycin) until reaching exponential growth phase. After counting in a Thoma counting chamber, cell density was adjusted to 6.25×10^5 cells/mL in RPMI 1640 medium. Five-fold concentrated solutions of antimicrobial peptides were prepared in this RPMI medium (300 to 4.7 μM).
Monocytes were aliquoted at 80 μL of cell suspension per well (corresponding to 5×10^4 monocytes/well or 5×10^5 cells/mL final) and mixed with 20 μL of peptide solution (60 to 0.94 μM final concentration). Negative and positive controls were carried out according to the same protocol as for the tests of anti-Leishmania activity. Experiments were done in triplicate for each peptide concentration. Cells were incubated at 37° C., in a 5% CO2 atmosphere for 72 hrs.
After 72 hours, the number of viable THP-1 cells was calculated indirectly by the MTT test (Mosmann, 1983). […] Blue formazan can be detected spectrophotometrically at 570 nm.
A 10 mg/mL MTT solution in PBS buffer (pH 7.4), filtered on a 0.45 μm filter, was aliquoted at 10 μL per well. Plates were then incubated for 4 hrs at 37° C. […] The OD at 570 nm of each well was then measured (Victor plate reader, PerkinElmer) to calculate the IC50.

[2] = system: Staphylococcus aureus (ATCC 25923); conditions: 18 hrs at 37° C., LB medium
Method: (§5) The following strains were used for the antibacterial activity tests: Escherichia coli (ATCC 25922 and ATCC 35218), Staphylococcus aureus (ATCC 25923), Enterococcus faecalis (ATCC 29212), Bacillus megaterium and Pseudomonas aeruginosa (ATCC 27853).
(§6) For each strain, a standard inoculum of 10^5 to 10^6 bacteria/mL (exponential growth phase) was prepared. To this end, a colony isolated on LB agar previously inoculated with one of the strains was cultured in 10 mL of LB broth medium. Liquid cultures were then incubated for 2 to 3 hrs at 37° C. with shaking for the bacteria to reach exponential growth phase. Each bacterial suspension was diluted in LB medium to an OD630nm of 0.01 which corresponds to a concentration of 10^5-10^6 cfu/mL (cfu: colony forming unit).
(§7) The minimum inhibitory concentration (MIC) of each peptide was determined by a test of growth inhibition in broth medium. […] The test was performed in a sterile 96-well microtiter plate. A series of increasing concentrations of each peptide (1 to 400 μM) was first prepared in sterile MilliQ water containing 5% dimethyl sulphoxide (DMSO). […] 50 μL of peptide were aliquoted into each well with 50 μL of bacterial suspension (10^5-10^6 cfu/mL). The microtiter plate was then incubated for 18 hrs at 37° C. with shaking. Bacterial growth was determined by measuring OD at 630 nm (turbidity) on a plate reader. […]

Hemolytic test = type: cell-based; conditions: erythrocytes (washed red blood cells), pH 7.4; human erythrocytes, 1 hr at 37° C., concentration inducing hemolysis of 50% of the cells; read-out: LC50 erythrocytes
Method: (§1) The hemolytic activity of the antimicrobial peptides was assessed using human erythrocytes from healthy donors. Red blood cell hemolysis is manifested by the release into the reaction medium of hemoglobin, the concentration of which is determined spectrophotometrically at 450 nm.
(§2) Red blood cells were separated from plasma and white blood cells by centrifugation of human blood (900 g, 10 min). The pellet containing red blood cells was washed three times with PBS buffer, pH 7.4. After counting on a Malassez cell, a stock solution of 2.10^7 red blood cells/mL was prepared in the same buffer. A series of concentrations of the peptides to be tested was prepared (1 to 200 μM).
(§3) The test was carried out as follows: 100 μL of the different peptide concentrations were added to 100 μL of the red blood cell suspension. After 1 hr of incubation at 37° C. followed by centrifugation (12,000 g, 15 sec), absorbance of the supernatant was measured at 450 nm. The negative control for this test (0% hemolysis) contained 100 μL of PBS buffer in place of the peptide solution. The positive control (100% hemolysis) contained 100 μL of 0.1% Triton in place of the peptide solution.
(§4) The LC50 value obtained is the mean of three experiments carried out in triplicate and corresponds to the peptide concentration inducing hemolysis of 50% of the cells.

human erythrocytes = assay: Hemolytic test; type: cell-based; conditions: relative to temporin-SHa
Method: as §1, §2, §3, §4

[3] = system: Pseudomonas aeruginosa (ATCC 27853); assay: Growth inhibition test in broth medium (MIC); type: cell-based; conditions: 18 hrs at 37° C., LB medium
Method: as §5, §6, §7

[4] = system: Enterococcus faecalis (ATCC 29212); conditions: 18 hrs at 37° C., LB medium
Method: as §5, §6, §7

[5] = molecular target: Leishmania infantum promastigotes; type: cell-based; conditions: 72 hours at 26° C., luciferase luminescence (FIG. 2 B), read-out: IC50, promastigote form
Method: The antiparasitic activity of the peptides was evaluated on two forms of the parasite Leishmania infantum, the promastigote form and the amastigote form.
The tests of anti-Leishmania activity were carried out with a Leishmania infantum cell line αNEO-αLUC This cell line was obtained by transforming Leishmania infantum strain MHOM/MA/67/ITMAP-263 with the vector pGM αNEO-αLUC containing the luciferase reporter gene (LUC) and the neomycin resistance gene (NEO) such as described in Roy et al. (2000). It was maintained in culture in its two forms, promastigote and amastigote.
Leishmania infantum promastigotes were maintained at 26° C. by one or two weekly passages depending on the number of parasites in the inoculum, in SDM 79 medium supplemented with 10 to 20% decomplemented foetal calf serum and […] porcine haemin and in the presence of 100 U/mL penicillin and 100 μg/mL streptomycin (Brun & Shonenberger, 1979). […] Cell densities were determined by flow cytometry in the presence of propidium iodide on a Facscan cytometer (Excalibur, Becton-Dickinson, Ivry, France).
Emitted luminescence was measured with a luminescence plate reader (Victor, PerkinElmer). […]
The percentage growth was calculated according to the following formula: % growth=[(L mean−bgd)peptide×100]/(L mean−bgd)control […]

Saccharomyces cerevisiae = conditions: YPD medium, 30° C.
Method: (§8) The minimum inhibitory concentration (MIC) of each peptide was determined by a test of growth inhibition in broth medium. […] The test was performed in a sterile 96-well microtiter plate. A series of increasing concentrations of each peptide (1 to 400 μM) was first prepared in sterile MilliQ water containing 5% dimethyl sulphoxide (DMSO). […] 50 μL of peptide were aliquoted into each well with 50 μL of bacterial suspension (10^5-10^6 cfu/mL). The microtiter plate was then incubated for 18 hrs at 37° C. with shaking. Bacterial growth was determined by measuring OD at 630 nm (turbidity) on a plate reader. Tests were carried out in triplicate for each peptide concentration.
(§9) These strains were first grown on YPD agar for a minimum of 48 hrs. Yeast suspensions were then prepared, exactly as for bacteria, and adjusted to 10^5-10^6 cfu/mL in YPD broth medium.
(§10) The antifungal activity test corresponds to the growth inhibition test in broth medium used for the bacteria (see above) in which LB medium was replaced by YPD medium. Fungal strains were incubated at 30° C.

[6] = system: Escherichia coli (ATCC 25922); conditions: 18 hrs at 37° C., LB medium
Method: as §5, §6, §7

Bacillus megaterium = conditions: 18 hrs at 37° C., LB medium
Method: as §5, §6, §7

Gram-negative strains = conditions: summary in text for all Gram-negative strains tested
Method: as §5, §6, §7

[7] = system: Candida albicans (ATCC 90028); conditions: YPD medium, 30° C.
Method: as §8, §9, §10

[8] = system: Escherichia coli (ATCC 35218); conditions: 18 hrs at 37° C., LB medium
Method: as §5, §6, §7

[9] = system: Candida parapsilosis (ATCC 22019); assay: Antifungal growth inhibition test in YPD broth (MIC); type: cell-based; conditions: YPD medium, 30° C.
Method: Fungal strains were incubated at 30° C.

Method for Escherichia coli ML-35p: as §6, §8
The growth inhibition negative control was obtained by replacing the solution containing the peptide with 50 μL of sterile MilliQ water containing 5% DMSO. […]

FLKGIVGMLGKLF-NH2 [[K^3]temporin-SHa]
Cytotoxic effect on monocytes [1]: not cytotoxic | MIC [2]: 3 µM | HC50 at 1 hr (Hemolytic test): 50 µM | Change in hemolytic activity as compared with temporin-SHa (human erythrocytes): twofold decrease; also recorded: twofold reduction | MIC [3]: 3 µM | MIC [4]: 10 µM | IC50 [5]: ~10 µM | MIC (Saccharomyces cerevisiae): 6.25 µM | MIC [6]: 3 µM | MIC (Bacillus megaterium): 1.5 µM | MIC (Escherichia coli ML-35p): 3 µM | MIC, all Gram-negative strains tested (Gram-negative strains): 3 µM | MIC [7]: 12.5 µM | MIC [8]: 3 µM

FLSGIVGMLGKLF-NH2 [temporin-SHa, F-L-S-G-I-V-G-M-L-G-K-L-F]
Cytotoxic effect on monocytes [1]: not cytotoxic | MIC [2]: 3 µM | HC50 at 1 hr (Hemolytic test): 25 µM | MIC [3]: 31.25 µM | MIC [4]: 10 µM | IC50 [5]: ~20 µM | MIC (Saccharomyces cerevisiae): 7.9 µM | MIC [9]: 31.25 µM | MIC [6]: 10 µM | MIC (Bacillus megaterium): 2.5 µM | MIC (Escherichia coli ML-35p): 6.25 µM | MIC [7]: 15 µM | MIC [8]: 10 µM
